The source of these data is patent US9242981B2, “Fused pyrazole derivatives as novel ERK inhibitors” (Merck Sharp & Dohme Corp., priority 2010, dated 2016).

SMILES strings stand for the structures.

The target in this experiment is Mouse ERK2 protein (Mus musculus (Mouse), UniProt P63085). Nature of the experiment: Coupled MEK1/ERK2 IMAP assay or Active ERK2 IMAP assay. The note with it: Table 1, class symbols, 30 μM ATP. Type of experiment: biochemical. Here is the method: 14 μl of kinase buffer (10 mM Tris.HCl pH 7.2, 10 mM MgCl2, 0.01% Tween-20, 1 mM DTT) containing 0.4 ng unphosphorylated Mouse ERK2 protein is added to each well of a black 384-well assay plate. […] DMSO concentration during initial incubation is 6.7%. […] DMSO concentration during ERK activation was 4%. After one hour, reactions are terminated by addition of 60 μl IMAP detections beads in binding buffer (Molecular Devices). Binding is allowed to equilibrate for 30 minutes before reading the plate on an LJL Analyst Fluorescence Polarization plate reader.
Activated ERK2 activity was also determined in the IMAP assay format using the procedure outlined above. […] Reactions proceeded for 30 minutes before termination by addition of […] IMAP detection beads in binding buffer. Plates were read as above after 30 minute binding equilibration.

Chain of Mouse ERK2 protein (P63085 whole entry): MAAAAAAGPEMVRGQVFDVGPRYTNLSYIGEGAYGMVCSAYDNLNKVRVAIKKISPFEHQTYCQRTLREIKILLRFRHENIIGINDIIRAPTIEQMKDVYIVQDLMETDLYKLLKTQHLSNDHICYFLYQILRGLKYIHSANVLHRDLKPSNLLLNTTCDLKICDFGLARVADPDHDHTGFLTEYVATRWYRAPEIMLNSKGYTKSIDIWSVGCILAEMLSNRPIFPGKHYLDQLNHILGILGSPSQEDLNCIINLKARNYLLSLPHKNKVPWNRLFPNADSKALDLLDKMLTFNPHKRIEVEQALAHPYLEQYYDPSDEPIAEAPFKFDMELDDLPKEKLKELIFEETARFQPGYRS

Turning to `O=C(Cc1ccccc1F)N1CCc2[nH]nc(-c3ccncc3)c2C1` [Compound 24, 5-[(2-fluorophenyl)acetyl]-4,5,6,7-tetrahydro-3-(4-pyridinyl)-1H-pyrazolo[4,3-c]pyridine], the IC50 (commonly the concentration that gives 50% inhibition) lay within 101 to 1000 nM.
Turning to `O=C(Cc1cccnc1)N1CCc2[nH]nc(-c3ccncc3)c2C1` [Compound 25, 4,5,6,7-tetrahydro-3-(4-pyridinyl)-5-(3-pyridinylacetyl)-1H-pyrazolo[4,3-c]pyridine], the half-inhibitory concentration (IC50) was in the range of 101 to 1000 nM.
With `O=C(Cc1ccccc1C(F)(F)F)N1CCc2[nH]nc(-c3ccncc3)c2C1` [Compound 26] the figure was 101 to 1000 nM; with `O=C(Cc1c(F)cccc1Cl)N1CCc2[nH]nc(-c3ccncc3)c2C1` [Compound 27, 5-[(2-chloro-6-fluorophenyl)acetyl]-4,5,6,7-tetrahydro-3-(4-pyridinyl)-1H-pyrazolo[4,3-c]pyridine], 101 to 1000 nM; with `O=C(N1CCc2[nH]nc(-c3ccncc3)c2C1)C1(c2ccc(Cl)cc2Cl)CC1` [Compound 28, 5-[[1-(2,4-dichlorophenyl)-cylcopropyl]carbonyl]-4,5,6,7-tetrahydro-3-(4-pyridinyl)-1H-pyrazolo[4,3-c]pyridine], 101 to 1000 nM.
On to `O=C(Cc1ccccc1Oc1ccccc1)N1CCc2[nH]nc(-c3ccncc3)c2C1` [Compound 29, 4,5,6,7-tetrahydro-5-[(2-phenoxyphenyl)acetyl]-3-(4-pyridinyl)-1H-pyrazol[4,3-c]pyridine], for which the IC50 was in the range of 101 to 1000 nM.
As to `O=C(Cc1ccccn1)N1CCc2[nH]nc(-c3ccncc3)c2C1` [Compound 30, 4,5,6,7-tetrahydro-3-(4-pyridinyl)-5-(2-pyridinylacetyl)-1H-pyrazolo[4,3-c]pyridine], the IC50 is 101 to 1000 nM.
Under `CS(=O)(=O)c1cccc(CC(=O)N2CCc3[nH]nc(-c4ccncc4)c3C2)c1` [Compound 31] stands 101 to 1000 nM; under `O=C(Cc1ccc(-c2ccccc2)cc1)N1CCc2[nH]nc(-c3ccncc3)c2C1` [Compound 32, 5-([1,1′-biphenyl]-4-ylacetyl)-4,5,6,7-tetrahydro-3-(4-pyridinyl)-1H-pyrazolo[4,3-c]pyridine], 101 to 1000 nM; under `O=C(Cc1ccccc1-c1cccnc1)N1CCc2[nH]nc(-c3ccncc3)c2C1` [Compound 33, 4,5,6,7-tetrahydro-3-(4-pyridinyl)-5-[[2-(3-pyridinyl)phenyl]acetyl]-1H-pyrazolo[4,3-c]pyridine], 101 to 1000 nM.
Molecule `O=C(C(CO)c1ccccc1)N1CCc2[nH]nc(-c3ccncc3)c2C1` (stereo not drawn) [Compound 38, 1,4,6,7-tetrahydro-gamma-oxo-beta-phenyl-3-(4-pyridinyl)-5H-pyrazolo[4,3-c]pyridine-5-propanol] registered an IC50 of 1000 to 100000 nM.
With `O=C(C1CCCc2ccccc21)N1CCc2[nH]nc(-c3ccncc3)c2C1` (centres unmarked) [Compound 39, 4,5,6,7-tetrahydro-3-(4-pyridinyl)-5-[(1,2,3,4-tetrahydro-1-naphthalenyl)carbonyl]-1H-pyrazolo[4,3-c]pyridine] the figure was 1000 to 100000 nM.
With `CC(C(=O)N1CCc2[nH]nc(-c3ccncc3)c2C1)c1ccccc1` (centres unmarked) [Compound 40, 4,5,6,7-tetrahydro-5-(1-oxo-2-phenylpropyl)-3-(4-pyridinyl)-1H-pyrazolo[4,3-c]pyridine] the figure was 1000 to 100000 nM; with `CC(C(=O)N1CCc2[nH]nc(-c3ccncc3)c2C1)c1ccccc1Cl` (centres unmarked) [Compound 41, 5-[2-(2-chlorophenyl)-1-oxopropyl]-4,5,6,7-tetrahydro-3-(4-pyridinyl)-1H-pyrazolo[4,3-c]pyridine], 1000 to 100000 nM.
The molecule `CCn1cc(Cl)c(NC(=O)N2CCc3[nH]nc(-c4ccncc4)c3C2)n1` [Compound 42, N-(4-chloro-1-ethyl-1H-pyrazol-3-yl)-1,4,6,7-tetrahydro-3-(4-pyridinyl)-5H-pyrazolo[4,3-c]pyridine-5-carboxamide] returned an IC50 of 1000 to 100000 nM.
With `O=C(NC1CNCC(c2ccccc2)C1)N1CCc2[nH]nc(-c3ccncc3)c2C1` (centres unmarked) [Compound 47, 1,4,6,7-tetrahydro-N-(5-phenyl-3-piperidinyl)-3-(4-pyridinyl)-5H-pyrazolo[4,3-c]pyridine-5-carboxamide] the figure was < 20 nM.
In the case of `CN1CC(NC(=O)N2CCc3[nH]nc(-c4ccncc4)c3C2)CC(c2ccccc2)C1` (centres unmarked) [Compound 49, 1,4,6,7-tetrahydro-N-(1-methyl-5-phenyl-3-piperidinyl)-3-(4-pyridinyl)-5H-pyrazolo[4,3-c]pyridine-5-carboxamide], the 50% inhibitory concentration (IC50) is < 20 nM.
Under `O=C(CC1CCCNC1)N1CCc2[nH]nc(-c3ccncc3)c2C1` (centres unmarked) [Compound 51, 4,5,6,7-tetrahydro-5-(3-piperidinylacetyl)-3-(4-pyridinyl)-1H-pyrazolo[4,3-c]pyridine] stands 101 to 1000 nM; under `CC1CC(NC(=O)N2CCc3[nH]nc(-c4ccncc4)c3C2)CN(Cc2ccccc2F)C1` (centres unmarked) [Compound 52, N-[1-[(2-fluorophenyl)-methyl]-5-methyl-3-piperidinyl]-1,4,6,7-tetrahydro-3-(4-pyridinyl)-5H-pyrazolo[4,3-c]pyridine-5-carboxamide], 21 to 100 nM.
Molecule `O=C(N[C@@H]1CCCN(Cc2nccs2)C1)N1CCc2[nH]nc(-c3ccncc3)c2C1` [Compound 55, 1,4,6,7-tetrahydro-3-(4-pyridinyl)-N-[1-(2-thiazolylmethyl)-3(R)-piperidinyl]-5H-pyrazolo[4,3-c]pyridine-5-carboxamide] returned a half-maximal inhibitory concentration (IC50) of 21 to 100 nM.
With `O=C(N[C@@H]1CCCN(Cc2ccsc2)C1)N1CCc2[nH]nc(-c3ccncc3)c2C1` [Compound 56, 1,4,6,7-tetrahydro-3-(4-pyridinyl)-N-[1-(3-thienylmethyl)-3(R)-piperidinyl]-5H-pyrazolo[4,3-c]pyridine-5-carboxamide] the figure was < 20 nM.
The molecule `O=C(N[C@@H]1CCCN(Cc2ncc[nH]2)C1)N1CCc2[nH]nc(-c3ccncc3)c2C1` [Compound 63, 1,4,6,7-tetrahydro-N-[1-(1H-imidazoL-2-ylmethyl)-3(R)-piperidinyl]-3-(4-pyridinyl)-5H-pyrazolo[4,3-c]pyridine-5-carboxamide] displayed an IC50 of 101 to 1000 nM.
`Cn1cnc(CN2CCC[C@@H](NC(=O)N3CCc4[nH]nc(-c5ccncc5)c4C3)C2)c1` [Compound 64, 1,4,6,7-tetrahydro-N-[1-[(1-methyl-1H-imidazoL-4-yl)methyl]-3(R)-piperidinyl]-3-(4-pyridinyl)-5H-pyrazolo[4,3-c]pyridine-5-carboxamide] gave an IC50 of 101 to 1000 nM.
Molecule `Cn1ccc(CN2CCC[C@@H](NC(=O)N3CCc4[nH]nc(-c5ccncc5)c4C3)C2)n1` [Compound 65, 1,4,6,7-tetrahydro-N-[1-[(1-methyl-1H-pyrazol-3-yl)methyl]-3(R)-piperidinyl]-3-(4-pyridinyl)-5H-pyrazolo[4,3-c]pyridine-5-carboxamide] gave a half-maximal inhibitory concentration (IC50) of 101 to 1000 nM.
Under `O=C(N[C@@H]1CCCN(Cc2c(F)cccc2Cl)C1)N1CCc2[nH]nc(-c3ccncc3)c2C1` [Compound 66, N-[1-[(2-chloro-6-fluorophenyl)methyl]-3(R)-piperidinyl]-1,4,6,7-tetrahydro-3-(4-pyridinyl)-5H-pyrazolo[4,3-c]pyridine-5-carboxamide] stands < 20 nM; under `O=C(N[C@@H]1CCCN(Cc2ccccc2C(F)(F)F)C1)N1CCc2[nH]nc(-c3ccncc3)c2C1` [Compound 67, 1,4,6,7-tetrahydro-3-(4-pyridinyl)-N-[1-[[2-(trifluoromethyl)phenyl]meth-yl]-3(R)-piperidinyl]-5H-pyrazolo[4,3-c]pyridine-5-carboxamide], 21 to 100 nM.
